Test results from the supplement of paper PMC10307832.

Legend:
Ponatinib + Foretinib = compound: Cc1ccc(C(=O)Nc2ccc(CN3CCN(C)CC3)c(C(F)(F)F)c2)cc1C#Cc1cnc2cccnn12 [Ponatinib] + COc1cc2c(Oc3ccc(NC(=O)C4(C(=O)Nc5ccc(F)cc5)CC4)cc3F)ccnc2cc1OCCCN1CCOCC1 [Foretinib] (partner 0.25 µM); experiment: relative viability (nuclei count vs DMSO), 5 days (fraction); higher = more cells survive
Outline: (§1)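 Nuclei were stained with Hoechst during a one-step fixation (final 0.05% Triton X-100, 1% formaldehyde, 1 ug/ml Hoechst) carried out 5 days after dosing, then counted on 4× images. The cells, lung cancer lines in 1536-well plates, had been dosed by pin tool the day after seeding with one drug alone or a fixed anchor-drug dose plus five library-drug doses (not always all listed) in √10 steps. Relative viability is the nuclei count in treated wells divided by that in vehicle wells, and each value is the median of duplicate plates.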

Pazopanib + Tozasertib = compound: Cc1ccc(Nc2nccc(N(C)c3ccc4c(C)n(C)nc4c3)n2)cc1S(N)(=O)=O [Pazopanib] + Cc1cc(Nc2cc(N3CCN(C)CC3)nc(Sc3ccc(NC(=O)C4CC4)cc3)n2)n[nH]1 [Tozasertib] (partner 0.1 µM); experiment: as above
Outline: as §1

| Cell Line | relative viability (Ponatinib + Foretinib; first compound 0.002 µM) | relative viability (Ponatinib + Foretinib; first compound 0.006325 µM) | relative viability (Ponatinib + Foretinib; first compound 0.06325 µM) | relative viability (Ponatinib + Foretinib; first compound 0.2 µM) | relative viability (Pazopanib + Tozasertib; first compound 0.01 µM) | relative viability (Pazopanib + Tozasertib; first compound 0.03162 µM) | relative viability (Pazopanib + Tozasertib; first compound 0.1 µM) | relative viability (Pazopanib + Tozasertib; first compound 0.3162 µM) | relative viability (Pazopanib + Tozasertib; first compound 1 µM) |
| --- | --- | --- | --- | --- | --- | --- | --- | --- | --- |
| NCI-H1975 | 0.911 | 0.955 | 1.03 | 1.01 | 0.665 | 0.693 | 0.854 | 0.742 | 0.581 |
| CAL-12T | 1.16 | 0.979 | 1.21 | 1.09 | 0.247 | 0.327 | 0.312 | 0.297 | 0.294 |
| NCI-H1623 | 0.899 | 0.832 | 0.889 | 0.833 | 0.43 | 0.455 | 0.413 | 0.46 | 0.393 |
| HCC-44 |  |  |  |  | 0.872 | 0.913 | 0.926 | 0.843 | 0.78 |
| EKVX | 0.615 | 0.784 | 0.846 | 1.01 | 0.355 | 0.383 | 0.435 | 0.422 | 0.448 |
| NCI-H1651 | 0.765 | 0.777 | 0.888 | 0.814 | 0.708 | 0.603 | 0.733 | 0.725 | 0.685 |
| NCI-H2170 | 0.953 | 0.898 | 0.966 | 0.927 | 0.772 | 0.724 | 0.73 | 0.67 | 0.674 |
| NCI-H1703 | 0.275 | 0.337 | 0.273 | 0.257 |  |  |  |  |  |
| Calu-6 | 0.849 | 0.867 | 0.931 | 0.816 |  |  |  |  |  |
| EBC-1 | 0.106 | 0.0969 | 0.092 | 0.115 |  |  |  |  |  |
| A-427 | 1 | 1.19 | 1.11 | 0.715 | 0.183 | 0.207 | 0.207 | 0.217 | 0.186 |
| NCI-H2405 | 1 | 1.06 | 1.04 | 0.935 | 0.77 | 0.777 | 0.79 | 0.75 | 0.76 |
| NCI-H1355 | 0.988 | 0.943 | 1.1 | 0.971 | 0.582 | 0.579 | 0.513 | 0.55 | 0.553 |
| SK-MES-1 | 0.856 | 1.08 | 1.25 | 0.959 | 0.934 | 0.891 | 0.916 | 0.905 | 0.786 |
| RERF-LC-KJ | 0.819 | 0.894 | 0.873 | 0.867 | 0.557 | 0.522 | 0.507 | 0.432 | 0.331 |
| NCI-H2228 | 0.656 | 0.83 | 0.907 | 0.791 | 0.265 | 0.271 | 0.265 | 0.26 | 0.302 |
| HOP-62 | 0.999 | 1 | 1 | 0.914 | 0.366 | 0.388 | 0.307 | 0.431 | 0.286 |
| HARA | 0.859 | 0.855 | 0.963 | 0.878 | 0.09 | 0.119 | 0.603 | 0.0772 | 0.0838 |
| PC-14 | 0.981 | 1.04 | 1.14 | 0.975 | 0.69 | 0.636 | 0.725 | 0.586 | 0.603 |

| Cell Line | relative viability (Ponatinib + Foretinib; first compound 0.002 µM) | relative viability (Ponatinib + Foretinib; first compound 0.006325 µM) | relative viability (Ponatinib + Foretinib; first compound 0.06325 µM) | relative viability (Ponatinib + Foretinib; first compound 0.2 µM) | relative viability (Pazopanib + Tozasertib; first compound 0.01 µM) | relative viability (Pazopanib + Tozasertib; first compound 0.03162 µM) | relative viability (Pazopanib + Tozasertib; first compound 0.1 µM) | relative viability (Pazopanib + Tozasertib; first compound 0.3162 µM) | relative viability (Pazopanib + Tozasertib; first compound 1 µM) |
| --- | --- | --- | --- | --- | --- | --- | --- | --- | --- |
| NCI-H1755 | 0.818 | 0.913 | 0.92 | 0.804 | 0.584 | 0.614 | 0.561 | 0.557 | 0.567 |
| HCC-78 | 0.521 | 0.578 | 0.598 | 0.534 | 0.334 | 0.429 | 0.472 | 0.517 | 0.415 |
| IA-LM | 1.06 | 1.1 | 1.01 | 1.06 |  |  |  |  |  |
| NCI-H441 | 1.14 | 0.836 | 1.01 | 0.986 | 0.798 | 0.683 | 0.784 | 0.558 | 0.518 |
| NCI-H322M | 0.956 | 0.976 | 1.02 | 0.814 | 0.536 | 0.518 | 0.547 | 0.448 | 0.476 |
| NCI-H2347 |  | 0.818 | 1.38 | 1.01 | 0.45 | 0.586 | 0.607 | 0.593 | 0.588 |
| COR-L23 | 0.931 | 0.896 | 0.929 | 0.796 | 0.236 | 0.173 | 0.202 | 0.214 | 0.152 |
| NCI-H2087 | 1.12 | 0.864 | 1.01 | 0.868 | 0.298 | 0.27 | 0.279 | 0.281 | 0.256 |
| LC-2-ad | 0.915 | 0.859 | 0.966 | 0.842 | 0.469 | 0.444 | 0.516 | 0.467 | 0.471 |
| NCI-H1915 | 1.03 | 1.12 | 0.996 | 1.01 | 0.455 | 0.422 | 0.468 | 0.407 | 0.399 |
| NCI-H1944 | 0.876 | 0.856 | 1.05 | 0.859 |  | 0.234 | 0.258 | 0.252 | 0.257 |
| NCI-H2023 | 0.778 | 0.89 | 0.962 | 0.657 | 0.467 | 0.318 | 0.38 | 0.331 | 0.242 |
| COR-L 105 | 0.882 | 1.15 | 1.23 | 1.3 | 0.341 | 0.345 | 0.356 | 0.334 | 0.382 |
| SK-LU-1 | 0.852 | 0.795 | 0.826 | 0.63 | 0.332 | 0.361 | 0.334 | 0.28 | 0.318 |
| LXF-289 | 0.92 | 0.952 | 0.96 | 0.943 | 0.223 | 0.213 | 0.189 | 0.189 | 0.175 |
| PC-3 [JPC-3] | 0.947 | 1.01 | 1.15 | 1.03 | 0.947 | 0.918 | 0.916 | 0.915 | 0.756 |
| NCI-H661 | 1.03 | 0.98 | 0.993 | 0.998 | 0.343 | 0.355 | 0.349 | 0.347 | 0.344 |
| NCI-H1666 | 0.967 | 0.988 | 1.06 | 0.886 | 0.573 | 0.649 | 0.625 | 0.609 | 0.648 |
| NCI-H2085 | 0.989 | 0.836 | 0.879 | 0.832 | 0.738 | 0.848 | 0.828 | 0.786 | 0.776 |
